The test deals with Hep3b monoculture and triculture spheroids. The test is described as follows: Sorafenib treatment of tumour spheroids in devices with and without vasculature (GFP signal of live cells). Type of test: cell-based. To be noted: 10 μM Sorafenib for 7 days from day 5, vascularised vs non-vascularised, FIG. 9B. As for the experimental part:
Next, the effect of Sorafenib treatment on the tumour spheroids and the vasculature was investigated. In this example, Hep3b monoculture and triculture spheroids were seeded in the devices with and without vasculature. At day 5, 10 μM of Sorafenib was used to treat the tumours for 7 days. GFP signal (representing the live cells) was quantified along the time.
In FIG. 9A, representative images from all the conditions are shown at Day 0 (starting of the drug treatment) and Day 5 post-treatment. FIG. 9B is a graph showing the GFP signal over time represented from 3 independent replicates.

The results in this text go back to patent publication US20240018483A1, “A DEVICE AND METHOD FOR VASCULARISING A CELL AGGREGATE” (AGENCY FOR SCIENCE, TECHNOLOGY AND RESEARCH, priority 2020, published 2024).

Each structure is given as a SMILES string.

On to `CNC(=O)c1cc(Oc2ccc(NC(=O)Nc3ccc(Cl)c(C(F)(F)F)c3)cc2)ccn1` [Sorafenib], for which the “viability of spheroids (GFP signal representing the live cells)” value was “viability of the vascularised spheroids is lower compared to the non-vascularised spheroids”.
